# Assay results reported in patent publication US5441987A, “Antifungal agent” (Merck & Co., Inc., priority 1994, dated 1995).
# Legend:
# A. fumigatus (5669) = assay: broth microdilution MIC assay; details: Aspergillus fumigatus, read-out: Minimum Inhibitory Concentration (MIC)
# Description: (§1) In the microbroth dilution assay, microorganisms were selected by streaking a yeast culture on Sabouraud dextrose agar (SDA) incubating for 24-48 hours at 35°-37° C., thereafter selected 3 to 5 characteristic colonies and transferring to a fresh plate and incubating under similar conditions. From the regrowth, 3 to 5 colonies were selected and suspended in 10 milliliters of YM broth (Difco) and incubated for 4 hours at 35°-37° C. shaking at 225 rpm. The 4 hour broth cultures were adjusted optically to 86% transmission resulting in a concentration of 1-5 X 10^6 cfu/ml which was further diluted 1:100 in YNBD (yeast nitrogen base with 1% dextrose) to obtain a concentration of 1-5 X 10^4 cfu/ml for use as inocula.
# (§2) The compounds in column 1 were then serially diluted two-fold to yield concentrations from 128 μg/ml to 0.6 μg/ml.
# (§3) The plates containing the diluted compounds were then inoculated with 75 μl/well of the appropriate microorganism and incubated for 48 hours at 35°-37° C. with MIC (minimum inhibitory concentration) determinations carried out after 24 hours of incubation. Growth and sterility controls for each organism and sterility checks for the compounds also were carried out.
# C. tropicalis (MY 1012) = assay: broth microdilution MIC/MFC assay; details: Candida tropicalis; for MIC: 24 h, read-out: Minimum Inhibitory Concentration (MIC); for MFC: read-out: Minimum Fungicidal Concentration (MFC)
# Description: as §1, §2, §3
# (§4) After recording MICs at 24 hours, the microtiter plates were shaken gently to resuspend the cells. A 1.5 μl sample was transferred from each well of the 96-well microtiter plate to a single reservoir inoculum plate containing SDA. The inoculated SDA and corresponding microtiter plates were incubated for 24 hours at 35°-37° C. For Cryptococus neoformans, SDA plates were inoculated at 48 hours after recording MICs and incubated 48 hours before reading the MFC. MFC is the lowest concentration of compound at which either no growth or growth of ≤4 colonies occur.
# A. fumigatus (5668) = assay: broth microdilution MIC assay; details: Aspergillus fumigatus, read-out: Minimum Inhibitory Concentration (MIC)
# Description: as §1, §2, §3
# C. neoformans (MY 2061) = assay: broth microdilution MIC/MFC assay; details: Cryptococcus neoformans; for MFC: 48 h, read-out: Minimum Fungicidal Concentration (MFC); for MIC: read-out: Minimum Inhibitory Concentration (MIC)
# Description: as §1, §2, §3, §4
# [1] = test system: Saccharomyces cerevisiae (MY 1976); assay: broth microdilution MIC/MFC assay; details: for MIC: 24 h, read-out: Minimum Inhibitory Concentration (MIC)
# Description: as §1, §2, §3, §4
# C. albicans (MY 1750) = assay: broth microdilution MIC/MFC assay; details: Candida albicans; for MFC: read-out: Minimum Fungicidal Concentration (MFC)
# Description: as §1, §2, §3, §4
# [2] = test system: Candids albicans (MY 1028); assay: broth microdilution MIC/MFC assay; details: Candida albicans; for MFC: read-out: Minimum Fungicidal Concentration (MFC)
# Description: as §1, §2, §3, §4
# [3] = test system: C. parapsilosis (MY 1010); assay: broth microdilution MIC/MFC assay; details: Lodderomyces parapsilosis; for MIC: 24 h, read-out: Minimum Inhibitory Concentration (MIC); for MFC: read-out: Minimum Fungicidal Concentration (MFC)
# Description: as §1, §2, §3, §4
# [4] = test system: C. pseudotropicalis (MY 2099); assay: broth microdilution MIC/MFC assay; details: Kluyveromyces marxianus; for MIC: 24 h, read-out: Minimum Inhibitory Concentration (MIC); for MFC: read-out: Minimum Fungicidal Concentration (MFC)
# Description: as §1, §2, §3, §4
# C. neoformans (MY 1146) = assay: broth microdilution MIC/MFC assay; details: Cryptococcus neoformans; for MFC: 48 h, read-out: Minimum Fungicidal Concentration (MFC); for MIC: read-out: Minimum Inhibitory Concentration (MIC)
# Description: as §1, §2, §3, §4
# [5] = test system: Aspergillus fumigatus (MF 4839); assay: broth microdilution MIC assay; details: read-out: Minimum Inhibitory Concentration (MIC)
# Description: as §1, §2, §3
# C. neoformans (MY 2062) = assay: broth microdilution MIC/MFC assay; details: Cryptococcus neoformans; for MFC: 48 h, read-out: Minimum Fungicidal Concentration (MFC); for MIC: read-out: Minimum Inhibitory Concentration (MIC)
# Description: as §1, §2, §3, §4
# [6] = test system: C. guillermondii (MY 1019); assay: broth microdilution MIC/MFC assay; details: Meyerozyma guilliermondii; for MIC: 24 h, read-out: Minimum Inhibitory Concentration (MIC); for MFC: read-out: Minimum Fungicidal Concentration (MFC)
# Description: as §1, §2, §3, §4
# [7] = test system: Cryptococcus neoformans (MY 1051); assay: broth microdilution MIC/MFC assay; details: for MFC: 48 h, read-out: Minimum Fungicidal Concentration (MFC); for MIC: read-out: Minimum Inhibitory Concentration (MIC)
# Description: as §1, §2, §3, §4
# Phytophthora infestans = type: in vivo; details: 50 ppm, tomato, evaluated after four days
# Plasmopara viticola = assay: in vivo protectant assay, downy mildew on grape; details: 50 ppm, evaluated after 12 days
# Alternaria solani = assay: in vivo protectant assay, early blight on tomato; details: 50 ppm, evaluated after four days
# Puccinia recondita = assay: in vivo protectant assay, wheat leaf rust on wheat; details: 50 ppm, evaluated after 10-14 days
# Botrytis cinerea = assay: in vivo protectant assay, grey mold on pepper; details: 50 ppm, evaluated after four days
# filamentous fungi = assay: filter paper disc inhibition zone assay, filamentous fungi; type: cell-based; details: 25 μl/disc, 28° C. or 37° C., 24 hours
# Description: Compound I is also useful for inhibiting the growth of filamentous fungi. Such use may be illustrated in the following tests with Aspergillus fumigatus, Aspergillus niger, Aspergillus flavus, Fusarium oxysporum, Rhizomicor miehei, Ustilago zeae and the like. Inocula for filamentous fungi are prepared by scraping the surface of stock plates maintained on potato dextrose agar with a moistened sterile dacron swab. The spores and mycelia are then suspended in 10 milliliters of sterile potato dextrose broth and adjusted to 70 percent transmission at 660 nm. The samples to be tested for production of antifungal agent are applied to 6.2 mm. filter paper discs (25 microliter/disc) and air dried at 24° C. When the sample to be tested is crude broth, it may be centrifuged prior to application. The discs bearing the material to be tested are then applied employing sterile conditions to the seeded assay plates and the samples […] 25 percent sterile aqueous dimethylsulfoxide (25 μl/disc). The assay plates are then incubated at either 28° C. or 37° C. for 24 hours. Following incubation, the inhibition zones are measured. Growths are also noted as to appearance.
# [8] = 24 h, read-out: Minimum Inhibitory Concentration (MIC)
Compound,MIC (A. fumigatus (5669)) [µg/mL],MIC (C. tropicalis (MY 1012)) [µg/mL],MFC (C. tropicalis (MY 1012)) [µg/mL],MIC (A. fumigatus (5668)) [µg/mL],MFC (C. neoformans (MY 2061)) [µg/mL],MIC (C. neoformans (MY 2061)) [µg/mL],MIC [1] [µg/mL],MFC (C. albicans (MY 1750)) [µg/mL],MFC [2] [µg/mL],MIC [3] [µg/mL],MFC [3] [µg/mL],MIC [4] [µg/mL],MFC [4] [µg/mL],MFC (C. neoformans (MY 1146)) [µg/mL],MIC (C. neoformans (MY 1146)) [µg/mL],MIC [5] [µg/mL],MFC (C. neoformans (MY 2062)) [µg/mL],MIC (C. neoformans (MY 2062)) [µg/mL],MIC [6] [µg/mL],MFC [6] [µg/mL],also measured
"C[C@@H]1[C@H](O)[C@@H](C)/C=C/C=C/C=C/C=C/C=C/C=C/C=C/[C@H](O[C@@H]2O[C@H](C)[C@@H](O)[C@H](N)[C@@H]2O)C[C@@H]2O[C@](O)(C[C@@H](O)C[C@@H](O)[C@H](O)CC[C@@H](O)C[C@@H](O)CC(=O)O[C@H]1C)C[C@H](O)[C@H]2C(=O)O [Amphotericin B, reference compound]",4,64,32,4,2,2,1,2,2,2,2,4,4,2,2,4,2,2,2,4,MFC [7]: 4 µg/mL; MIC [7]: 2 µg/mL
CCCCCCC(C)C1=C(O)C(=O)C2C(O)C(C)CC(O)C2C1(C)C(=O)CCO (centres unmarked) [Compound I],32,32,32,32,16,16,16,32,32,64,64,16,32,32,32,32,32,16,16,16,"control of Phytophthora infestans (Phytophthora infestans): up to 90%; control of Plasmopara viticola (Plasmopara viticola): ≤ 85%; MFC ([1]; read-out: Minimum Fungicidal Concentration (MFC)): 16 µg/mL; control of Alternaria solania (Alternaria solani): Moderate control; control of Puccinia recondita (Puccinia recondita): Moderate control; MIC (C. albicans (MY 1750); [8]): 64 µg/mL; control of Botrytis cinerea (Botrytis cinerea): Moderate control; MIC [2, 8]: 32 µg/mL; MFC [7]: 16 µg/mL; MIC [7]: 8 µg/mL; growth inhibition of fungal organisms (inhibition zones) (filamentous fungi): effectively inhibit growth"
